Experimental data from patent US20080003438A1, “Heterocyclic siloxanes for use in biocidal coatings and materials” (Auburn University, priority 2002, published 2008).

Tests used:
[1] = tested on: MS2 phage; assay: Antiviral activity of chlorinated coated surfaces, modified AATCC Method 100-1998; type: cell-based, MS2 virus
Experimental: Soft and hard surfaces were treated by exposure to a solution of 3-triethoxysilylpropyl-5,5-dimethylhydantoin, as prepared in Example 1, and then halogenated with hypochlorite bleach, prior to being exposed to a challenge inoculum of a virus (MS2 phage). […] Soft surfaces used in these experiments were swatches of woven cotton textiles, and slabs cut from a standard kitchen sponge. Hard surfaces used were porcelain and marble tiles.
For the preparation of antimicrobial textiles, fabric and sponge samples were immersed in 5% solution of 3-triethoxysilylpropyl-5,5-dimethylhydantoin and dried in a convection oven at 90° C. for two hours. Chlorination of the coated cellulose materials was accomplished by placing them in the wash chamber of a standard, household washing machine, and processing them through a normal, cold water small load cycle, with one rinse. The washing solution contained 100 mL of CLOROX ULTRA (sodium hypochlorite) per load. […] Chlorine contents were calculated and expressed as ppm Cl^+. […]
Hard surface samples were exposed to the 3-triethoxysilylpropyl-5,5-dimethylhydantoin by using a sponge soaked in the 5% solution, before transfer to a drying oven at 90° C. for two hours. […] Chlorine bound to hard surfaces was determined by iodometric/thiosulfate titration, and chlorine contents were expressed as μg Cl^+ per square cm. […]

[2] = tested on: Candida albicans (ATCC # 102301); assay: Anti-yeast activity of halogen charged coated surfaces; type: cell-based
Experimental: Soft and hard surfaces were treated by exposure to solutions of 3-triethoxysilylpropyl-5,5-dimethylhydantoin prepared as described in Example 1. Challenge inocula for determination of activity directed against yeasts consisted of suspensions of Candida albicans (ATCC # 102301) harvested from PDA plates. Procedures for preparation of halogen charged surfaces, plates, and the exposure of test articles were as described in Example 11. Recovery of viable Candida was accomplished by the plate dilution method on PDA.

CCO[Si](CCCN1C(=O)NC(C)(C)C1=O)(OCC)OCC [3-triethoxysilylpropyl-5,5-dimethylhydantoin]
Log 10 reduction of MS2 titer ([1]; cellulose substrates (textile and sponge), 24 hours of contact): approximately 4 logs | Log 10 reduction of MS2 titer ([1]; hard surfaces, contact times of as little as 6 hours): approximately 2 logs | reduction in viable yeasts ([2]; cotton surfaces, two hours of contact): 5 logs | reduction in viable yeasts ([2]; hard surfaces, 6 hours of contact): up to 4 logs | reduction in viable yeasts ([2]; polyester, 24 hours): 4 logs
